{"source": "patent US20160296437A1", "about": "“ORAL CARE ZINC COMPOSITIONS” (COLGATE-PALMOLIVE COMPANY, priority 2013, published 2016)", "key": {"[1]": {"tested_on": "Actinobacillus actinomycetemcomitans (Aa) ATCC cat#29522", "assay": "Bacterial invasion of human periodontal ligament fibroblasts by Actinobacillus actinomycetemcomitans (internalized colony count)", "format": "cell-based", "settings": "for reduces internalized Actinobacillus actinomycetemcomitans: versus Aa alone, HPdLF cells", "protocol": "(§1) Human periodontal ligament fibroblasts (HPdLF, Lonza cat#CC-7049) are seeded onto a plate and incubated at 37° C. in 5% CO2 overnight using SCGM bullet kit (Lonza, #CC-3205) containing Stromal cell basal medium, hFGF-B, insulin, FBS and GA-1000.\n(§2) Pathogenic bacteria Actinobacillus actinomycetemcomitans (Aa) ATCC cat#29522 or Porphyromonas gingivalis (Pg) ATCC cat#33277) are incubated overnight at 37° C. (using tryptic soy broth for Actinobacillus actinomycetemcomitans and half-strength brain heart infusion (supplemented with yeast extract, hemin and vitK1) for Porphyromonas gingivalis). The optical density (OD) at 610 nm is read. The bacteria are centrifuged at 8000 rpm for 10 mins and the pellet resuspended in cell culture media and diluted to OD610 of 0.1 to 0.2.\n(§3) The test sample (dissolved in water) is added to the cells and incubated at 37 C in 5% CO2 incubator for 30 minutes before the bacteria are added. The cells are infected with bacteria by adding the resuspended bacteria to the cells and further incubating at 37° C. in 5% CO2 incubator for 90 to 120 minutes.\nThe cells are washed five times with PBS to remove non-adherent bacteria. Fresh cell culture medium containing 1× penicillin (100 IU) and streptomycin (100 μg/ml) is added and the cells incubated at 37° C. in 5% CO2 incubator for 2 hours to kill extracellular bacteria. The medium is then removed and the cells washed three times with PBS. 1 ml 1% saponin solution in PBS is added to the infected cells for 5 minutes at. 37° C. to lyse the cells and release internalized bacteria. Dilutions (serial dilutions in PBS with dilution factor 10) are plated onto a suitable medium using a 100 μl sample and spread with a sterilized stick before incubating in an anaerobic chamber at 37° C. for 2-3 days and counting the resultant bacterial colonies."}, "[2]": {"tested_on": "Porphyromonas gingivalis (Pg) ATCC cat#33277", "assay": "Bacterial invasion of human periodontal ligament fibroblasts by Porphyromonas gingivalis (internalized colony count)", "format": "cell-based", "protocol": "as §1, §2, §3\nThe cells are washed five times with PBS to remove non-adherent bacteria. Fresh cell culture medium containing 1× penicillin (100 IU) and streptomycin (100 μg/ml) is added and the cells incubated at 37° C. in 5% CO2 incubator for 2 hours to kill extracellular bacteria. […]"}}, "data": [{"compound": "O=C([O-])CC(O)(CC(=O)[O-])C(=O)[O-].O=C([O-])CC(O)(CC(=O)[O-])C(=O)[O-].[Zn+2].[Zn+2].[Zn+2]", "note": "[ZnCitrate, zinc citrate]", "values": [{"measurement": "Bacterial Count", "setting": "[1]; Table 2, internalized Aa in HPdLF cells, sample at 8 ppm, Aa alone 178", "result": 64}, {"measurement": "reduces internalized Actinobacillus actinomycetemcomitans", "setting": "[1]; Table 2 experiment, at 8 ppm", "result": "approximately 66%"}]}, {"compound": "[O]=[Zn]", "note": "[ZnO, zinc oxide]", "values": [{"measurement": "Bacterial Count", "setting": "[1]; Table 1, internalized Aa in HPdLF cells pretreated 30 minutes with sample, ZnO concentration not given, Aa alone 11800", "result": 10040}, {"measurement": "reduces internalized Actinobacillus actinomycetemcomitans", "setting": "[1]; Table 1 experiment", "result": "approximately 15%"}, {"measurement": "Bacterial Count", "setting": "[1]; Table 2, internalized Aa in HPdLF cells, sample at 4 ppm, Aa alone 178", "result": 137}, {"measurement": "reduces internalized Actinobacillus actinomycetemcomitans", "setting": "[1]; Table 2 experiment, at 4 ppm", "result": "approximately 23%"}, {"measurement": "Bacterial Count", "setting": "[2]; Table 1, internalized Pg in HPdLF cells pretreated 30 minutes with sample, ZnO concentration not given, Pg alone 11460", "result": 10760}, {"measurement": "reduces internalized Porphyromonas gingivalis", "setting": "[2]; Table 1 experiment, versus Pg alone, HPdLF cells", "result": "approximately 6%"}]}]}
